According to PubChem BioAssay (NCI):
Where “and” joins values, the source holds several entries; their conditions need not be identical. Identical values can stand only once.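 Grown in 96-well plates, cells were treated for 48 hours with each compound at five concentrations. Insufficient inhibition: endpoint recorded as highest concentration tested. Abbreviation: GI50, concentration required for 50% inhibition of growth. TGI: concentration producing complete growth inhibition.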

What was measured:
Assay in all cases: NCI anticancer screen, dose series, 48 h
[1] = test system: A549 NSCLC
[2] = test system: UO-31 renal
[3] = test system: SF-268 CNS
[4] = test system: OVCAR-8 ovarian
[5] = test system: DU-145 prostate
[6] = test system: SNB-75 CNS
[7] = test system: SW-620 colon
[8] = test system: HT29 colon
[9] = test system: RPMI-8226 leukemia
[10] = test system: SN12C renal

| SMILES | GI50 [1] | TGI [1] | GI50 [2] | TGI [2] | GI50 [3] | TGI [3] [µM] | GI50 [4] | TGI [4] | GI50 [5] | TGI [5] [µM] | GI50 [6] | TGI [6] [µM] | GI50 [7] | TGI [7] | GI50 [8] [µM] | TGI [8] [µM] | GI50 [9] | TGI [9] | GI50 [10] | TGI [10] [µM] |
| --- | --- | --- | --- | --- | --- | --- | --- | --- | --- | --- | --- | --- | --- | --- | --- | --- | --- | --- | --- | --- |
| Cc1csc(/C=N/NC(=O)c2nnn(-c3ccnc4c(C(F)(F)F)cccc34)c2C)c1 | 36.6 µM | > 100 µM | > 100 µM | > 100 µM | > 100 µM | > 100 | 74.1 µM | > 100 µM | > 100 µM | > 100 | 27.2 µM | 92.1 | > 100 µM | > 100 µM | 10.1 | 82.5 | 33700 nM | > 100 µM | 71.4 µM | > 100 |
| CCCCN(CCCC)c1ccc(C(=N)c2ccc(N(C)C)cc2)cc1 | 0.7 µM | 1.97 µM | 0.0919 µM | 1.28 µM | 1.3 µM | 2.73 | 0.591 µM | 1.78 µM | 1.03 µM | 2.23 | 1.14 µM | 2.42 | 0.438 µM | 1.78 µM | 0.292 | 1.08 | 224 nM | 0.737 µM | 1.19 µM | 2.77 |
| O=C(/C=C/c1ccccc1)c1c[nH]c2ccccc2c1=O | 2.35 µM | 10.3 µM | 3.26 µM | 14.7 µM | 2.81 µM | 10.3 | 2.23 µM | 6.82 µM | 1.57 µM | 6.34 | 3.1 µM | 12 | 2.76 µM | 10 µM | 3.15 | 10.6 | 2230 nM | 7.62 µM | 3.54 µM | 15.5 |
| O=C(COc1ccc(/C=C2\Oc3ccccc3C2=O)cc1)Nc1nccs1 | 63.9 µM | > 100 µM | > 100 µM | > 100 µM | 36.8 µM | > 100 | > 100 µM | > 100 µM | 71 µM | > 100 | 17.4 µM | 72.6 | > 100 µM | > 100 µM | > 100 | > 100 | 4120 nM | > 100 µM | 76.9 µM | > 100 |
| Cc1cc2cccnc2c2ncccc12 | 0.949 µM | 10.6 µM | 0.411 µM | 4.15 µM | 0.739 µM | 27.7 | 0.626 µM | 11.9 µM | 1.02 µM | > 100 | 3.24 µM | > 100 | 2.34 µM | 27.9 µM | 1.69 | 16 | 2430 nM | 9.07 µM | 1.18 µM | > 100 |
| COc1cc(/C=N/Nc2ncnc3c2cnn3C(C)C)ccc1O | 9.92 µM | > 25 µM | 3.56 µM | 17.3 µM | 7.68 µM | > 22.8 | 6.37 µM | > 25 µM | 8.03 µM | > 25 | 0.506 µM | 9.57 | 8.41 µM | > 25 µM | 8.18 | > 25 | 9760 nM | > 17.8 µM | 8.27 µM | > 25 |
| NC(=O)c1cc(-c2ccncc2)cc(-c2ccccc2)c1N | > 23.2 µM | > 25 µM | 6.41 µM | > 25 µM | > 25 µM | > 25 | 15.1 µM | > 25 µM | > 22.9 µM | > 25 | 4.76 µM | 19.6 | > 25 µM | > 25 µM | > 25 | > 25 | 11600 nM | > 25 µM | 12.9 µM | > 25 |
| Cc1cc(N2CCN(C)CC2)nc(NCc2cc(Nc3ccnc4cc(Cl)ccc34)ccc2F)n1 | 2.34 µM | 5.3 µM | 1.76 µM | 3.72 µM | 1.99 µM | 7.76 | 3.13 µM | 9.68 µM | 2.52 µM | > 100 | 1.69 µM | 5.56 | 1.85 µM | 4.01 µM | 1.24 | 3.38 | 2200 nM | 5.48 µM | 2.3 µM | 5.62 |
| COc1ccc(C[n+]2c3ccccc3n3c4ccc(N)cc4ccc32)c(OC)c1OC | 19.3 µM | > 100 µM | 40.1 µM | > 100 µM | 2.42 µM | 15.5 | 6.48 µM | 32.5 µM | 6.42 µM | 78.1 | 1.45 µM | 10.8 | 8.39 µM | 36.5 µM | 4.63 | 33.2 | 512 nM | 7.64 µM | 0.626 µM | 11 |
| C=C1C(=O)O[C@H]2[C@H]1CC/C(Cn1cc(CNCCc3c[nH]c4ccc(Cl)cc34)nn1)=C\CC[C@@]1(C)O[C@@H]21 | 34.9 µM | > 100 µM | 6.23 µM | 19.4 µM | 12.5 µM | 33.6 | 11.8 µM | 29.1 µM | 5.95 µM | 18.5 | 4.88 µM | 17.9 | 1.82 µM | 3.88 µM | 3.32 | 11.2 | 2360 nM | 5.55 µM | 2.54 µM | 8.24 |
| Cc1c(C)c2c(c(C)c1NC(=O)/C=C\C(=O)O)CCC(C)(CCCC(C)CCCC(C)CCCC(C)C)O2 (stereo unspecified) | 1.79 µM | 3.62 µM | 1.27 µM | 2.55 µM | 1.67 µM | 3.08 | 2.29 µM | 7.62 µM | 1.69 µM | 3.05 | 1.31 µM | 2.58 | 1.66 µM | 3.25 µM | 2.61 | 8.24 | 2170 nM | 13.8 µM | 1.73 µM | 3.3 |
| COc1cccc(C(=O)Nc2ccc(CN3CCc4nc5cc(OC)c(OC)cc5cc43)cc2)c1 | 3.78 µM | > 100 µM | 3.36 µM | 60.1 µM | 6.51 µM | > 100 | 3.88 µM | > 100 µM | 4.55 µM | 67.9 | 2.66 µM | > 100 | 4.16 µM | 19.4 µM | 2.59 | 7.05 | 3890 nM | 24.3 µM | 3.9 µM | 16.4 |
| NC(C/[N+]([O-])=N/O)C(=O)O (stereo unspecified) | 0.24 µM | > 100 µM and 67.9 µM | 5.55 µM and 2.44 µM and 2.13 µM | > 100 µM and 235 µM | 6.55 µM and 2.88 µM and 5.56 µM | > 482 |  | > 100 µM and 459 µM | 173 µM | > 500 | 13.4 µM and 10.2 µM and 101 µM | > 500 | 9.22 µM and 19.7 µM and 15.1 µM | > 100 µM and 417 µM |  | > 395 | > 43800 nM and 46500 nM and 18000 nM | > 500 µM | 14.6 µM and > 100 µM and 10.5 µM | > 464 |
| C=CCn1c(=O)c2cnc(Nc3ccc(N4CCN(C)CC4)cc3)nc2n1-c1ccc2c(n1)[C@@](O)(CC)CC2 | 2 µM | 35.8 µM | 0.36 µM | 6.96 µM | 2.07 µM | > 63.5 | 0.573 µM | 5.62 µM | 0.939 µM | 35.3 | 1.07 µM | 13.7 | 0.525 µM | > 100 µM | 0.261 | 4.49 | 1740 nM | 14.5 µM | 0.507 µM | > 55.7 |
| Cc1onc(-c2c(F)cccc2Cl)c1-c1ncc(-c2ccc(Cl)cc2)o1 | 4.34 µM | > 100 µM | 5.47 µM | > 100 µM | 7.3 µM | > 100 | 4.69 µM | > 100 µM | 14.6 µM | > 100 | 12.1 µM | 77.6 | 4.35 µM | > 100 µM | 3.89 | > 100 | 2770 nM | 44.9 µM | 5.34 µM | > 100 |
| Oc1c(C(Nc2cccc3ccccc23)c2ccccc2)ccc2cccnc12 (stereo unspecified) | 2.95 µM | > 100 µM | 1.62 µM | 23 µM | 3.04 µM | 28.7 | 3.22 µM | 39.3 µM | 7.22 µM | > 100 | 5.67 µM | > 100 | 3.73 µM | 24 µM | 5.57 | > 100 | 2360 nM | > 100 µM | 4.1 µM | > 100 |
| COC(=O)CCC(C)[C@H]1CCC2C3C(C[C@H](OC(C)=O)[C@@]21C)[C@@]1(C)CCC2(C[C@H]1C[C@H]3OC(C)=O)OOC1(CCC(C)CC1)OO2 (stereo partly specified) | 3.89 µM and 13.4 µM | 25.4 µM and > 100 µM | 4.13 µM and 11.2 µM | 17.8 µM and 36.4 µM | 8.26 µM and 32.8 µM | > 100 | 8.64 µM and 26.2 µM | > 100 µM | > 100 µM and 27.8 µM | > 100 | 13.7 µM and 40.7 µM | > 100 | 4.68 µM and 31.4 µM | > 100 µM |  | > 100 | 1280 nM and 3150 nM | 6.34 µM and 17.2 µM |  | > 100 |
| CCOC(=O)C1=C(C)NC2SC(=O)/C(=C\c3ccccc3Cl)N2C1c1ccccc1 (stereo unspecified) | > 100 µM | > 100 µM | > 100 µM | > 100 µM | > 100 µM | > 100 | > 100 µM | > 100 µM | > 100 µM | > 100 | > 100 µM | > 100 | > 100 µM | > 100 µM | > 100 | > 100 | 79700 nM | > 100 µM | > 100 µM | > 100 |
| COc1cc(N2CCN(C(C)C)CC2)ccc1Nc1nc(Nc2cccc3ncccc23)c2cc[nH]c2n1 | 2.92 µM | 15.6 µM | 3.79 µM | 11.6 µM | 5.21 µM | 15.4 | 5.86 µM | > 22.7 µM | 6.55 µM | 24.6 | 3.99 µM | > 15.4 | 3.6 µM | 14.9 µM | 1.5 | 5.54 | 5680 nM | 17.8 µM | 15.7 µM | > 25 |
